Test results from PubChem BioAssay (NCI).
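Growth conditions: 96-well plates. Treatment: test compound, 48 hours, 5 concentrations. Analysis: linear interpolation between bracketing concentrations; unreached endpoints set to highest concentration. Abbreviation: GI50, concentration required for 50% inhibition of growth. Definition used: TGI = concentration required for complete inhibition of growth.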

Experiments:
Assay in all cases: NCI tumour cell line growth inhibition, 48 h
HOP-92 NSCLC = test system: HOP-92 NSCLC
MOLT-4 leukemia = test system: MOLT-4 leukemia
HL-60(TB) leukemia = test system: HL-60(TB) leukemia
SF-539 CNS = test system: SF-539 CNS
SF-295 CNS = test system: SF-295 CNS
RPMI-8226 leukemia = test system: RPMI-8226 leukemia
NCI-H23 lung = test system: NCI-H23 lung
SK-MEL-2 melanoma = test system: SK-MEL-2 melanoma
SK-OV-3 ovarian = test system: SK-OV-3 ovarian
ACHN renal = test system: ACHN renal

SMILES | TGI (HOP-92 NSCLC) [µM] | TGI (MOLT-4 leukemia) [µM] | TGI (HL-60(TB) leukemia) [µM] | TGI (SF-539 CNS) [µM] | TGI (SF-295 CNS) [µM] | TGI (RPMI-8226 leukemia) [µM] | TGI (NCI-H23 lung) [µM] | TGI (SK-MEL-2 melanoma) [µM] | TGI (SK-OV-3 ovarian) [µM] | TGI (ACHN renal) [µM] | GI50 (MOLT-4 leukemia) [µM] | GI50 (HL-60(TB) leukemia) [µM] | GI50 (SF-539 CNS) [µM] | GI50 (SF-295 CNS) [µM] | GI50 (RPMI-8226 leukemia) [µM] | GI50 (NCI-H23 lung) [µM] | GI50 (SK-MEL-2 melanoma) [µM] | GI50 (SK-OV-3 ovarian) [µM] | GI50 (HOP-92 NSCLC) [µM]
O=C(O)C1CCC(=O)N1S(=O)(=O)c1ccccc1 (stereo not drawn) | > 100 | > 100 | > 100 | > 100 | > 100 | > 100 | > 100 | > 100 | > 100 |  |  |  |  |  |  |  |  |  | 
CC(=O)C=NCC(=O)O | > 100 | > 100 | > 100 | > 100 | > 100 | > 100 | > 100 | > 100 | > 100 | > 100 |  |  |  |  |  |  |  |  | 
CC(=O)OCC1=C(C(=O)O)C(c2ccc3c(c2)OCO3)c2cc3c(cc2O1)OCO3 (stereo not drawn) | > 100 | > 100 | > 100 | > 100 | > 100 | > 100 | > 100 |  | > 100 | > 100 |  |  |  |  |  |  |  |  | 
O=C(Nc1c(C(=O)NC2CCCCC2)[nH]c(=O)[nH]c1=O)c1ccc(Cl)cc1 | > 100 | > 100 | > 100 | > 100 | > 100 | > 100 |  |  | > 100 | > 100 |  |  |  |  |  |  |  |  | 
CCCC(N)C(=O)c1ccccc1 (stereo not drawn) | > 100 |  | > 100 | > 100 | > 100 | > 100 | > 100 | > 100 | > 100 | > 100 |  |  |  |  |  |  |  |  | 
COc1ccc(-c2nn(-c3cccc(NC(=O)Nc4ccccc4)c3)cc2-c2ccncc2)cc1Cl |  | 7.96 | 6.36 | 3.5 | 6.32 | 5.83 | > 100 | 7.53 | 30.8 |  | 2.5 | 2.52 | 1.8 | 2.01 | 2.14 | 3.5 | 3.14 | 3.4 | 
c1ccc(N=c2nc(N3CCOCC3)ss2)cc1 | 36.3 | 37.1 | 47.3 | 32.3 | 35.1 |  | > 100 | 43.4 | > 100 | 30.9 |  |  |  |  |  |  |  |  | 
Fc1ccc(-c2nn3c(-c4cc(C(F)(F)F)cc(C(F)(F)F)c4)nnc3s2)cc1 | 3.93 | > 50 |  | > 50 | > 50 | > 50 | > 50 | 4.75 | 3.9 |  | > 50 |  | 3.07 | 1.72 | > 50 | 3.05 | 1.64 | 1.38 | 1.22
CC(=O)O[C@H]1C=CC(=O)C(C)CC1C (stereo partly drawn) | > 100 | > 100 | > 100 | > 100 | > 100 |  | > 100 | > 100 | > 100 | > 100 |  |  |  |  |  |  |  |  | 
Clc1ccc(CNc2nc(Cl)c3[nH]cnc3n2)cc1Cl |  | > 100 |  | 45.2 | > 100 |  | > 100 | 77.9 | 85.5 | > 100 |  |  |  |  |  |  |  |  | 
N#CC(Nc1cccc(C(F)(F)F)c1)c1ccccc1C(F)(F)F (stereo not drawn) |  | 40.5 | 7.57 | 33.1 | 22.2 |  | 27.6 | 17.9 | 31.4 | 27.6 |  |  |  |  |  |  |  |  | 
CCOc1ccc(/C(C=O)=C(\Cl)c2ccc(OC)c(OC)c2)cc1 | > 100 |  | > 100 | > 100 | > 100 | > 100 | > 100 | > 100 | > 100 | > 100 |  |  |  |  |  |  |  |  | 
CCC(=O)NC(Nc1cccc(F)c1)(C(F)(F)F)C(F)(F)F | > 100 | > 100 | > 100 | > 100 | > 100 | > 100 | > 100 | > 100 | > 100 | > 100 |  |  |  |  |  |  |  |  | 
O=C(Nc1ccc(Sc2ccc(N=Nc3c(O)c(S(=O)(=O)O)cc4cc(S(=O)(=O)O)ccc34)cc2)cc1)c1ccc(N=Nc2c(O)ccc3c(S(=O)(=O)O)cc(S(=O)(=O)O)cc23)cc1 | > 100 | 52.1 | 33.5 | > 100 | > 100 | 73.4 | > 100 | > 100 | > 100 | > 100 |  |  |  |  |  |  |  |  | 
Cc1cc2c(C(C)C)c(O)c(O)c(C=NCCO)c2c(O)c1-c1c(C)cc2c(C(C)C)c(O)c(O)c(C=NCCO)c2c1O | 5.07 | 2.46 | 4.97 | 5.37 | 5.51 | 4.9 | 4.16 | 14.6 | 12.3 | 12.4 |  |  |  |  |  |  |  |  | 
NC1(C(=O)O)CCc2ccc(N(CCCl)CCCl)cc2C1 (stereo not drawn) | > 100 | 87 | > 100 | > 100 | > 100 | > 100 | > 100 | > 100 | > 100 |  |  |  |  |  |  |  |  |  | 
